Source: US11186560B2, “Arthropod repellent chemicals” (The Regents of the University of California, priority 2015, dated 2021)

What was measured:
[1] = system: Aedes aegypti; assay: Aedes aegypti 2-choice landing assay (two-choice heat assay); assay type: in vivo; details: compounds at 3% concentration; female Aedes aegypti; two heat sources at 37 C. as attractants; 5 minute trial
Method: In order to test the compounds in mosquitoes, a Two-choice heat assay in Aedes aegypti was performed. A pair of heat sources were prepared using 2 hand warmers fitted into a 100×15 mm petri dish base and covered with 15×15 cm polyester netting secured round the petri dish by a pair or 8 inch plastic cable ties (Gardner Bender, Milwaukee, Wis.) coupling. Excess netting material was trimmed off round the edges of the petri dish. The treatment chemical 500 μl was added at 3% concentration directly onto the netting and the two assembled dishes were placed inside a cage of 20 female A. aegypti mosquitoes. Total numbers of mosquito landings on the net covering of each dish were counted during the assay from video recordings of the 5 minute trial. The solvent and DEET positions were alternated between runs.

[2] = system: Aedes aegypti; assay: Aedes aegypti 1-choice landing assay (heat source attractant); assay type: in vivo; details: compounds at 3% concentration; female Aedes aegypti; one heat source at 37 C. as attractant
[3] = system: Drosophila melanogaster; assay: Drosophila melanogaster T-maze assay; assay type: in vivo; details: compounds at 5% concentration; average of 3 trials; negative P.I. indicates repellency
Method: T-maze assay was used to test selected compounds. 4-7 day old starved wild-type flies of Drosophila melanogaster (20 males plus 20 females/trial) were tested. Under a chemical hood, 10 ul of solvent and 10 ul of test chemical were applied onto filter paper placed in control tubes and test tubes. The flies were loaded into the elevator of a T-maze apparatus and lowered into position where they could make a choice between the solvent tube and the test chemical tube. After allowing flies to make choice for 1 minute in dark, the elevator was closed and number of flies in each tube was counted. Preference Index (P.I.)=(#flies in test arm−#flies in control arm)/(#flies in test arm+#flies in control arm). The results presented in Table 2 report the average Preference Index from 3 independent trials.

[4] = system: Aedes aegypti females; assay: Modified arm-in-cage assay; assay type: in vivo; details: 3% 4-methyl piperidine on filter paper adjoining netted landing window of glove
Description: FIG. […] (2a) Control and 4-MP treated gloves; (2b) Mean numbers of landings within minutes 2-5 of the assay. N=4 trials, ˜40 mosquitoes/trial.
The identification of these compounds started with understanding the biochemical, spacial charge density and other biochemical and physical factors aside from straight chemical structure for imparting the activity with existing DEET-like chemical structure and are therefore studying just DEET-like properties there were limits in finding completely novel classes of repellents that are not structurally related to DEET. Additional properties were then added. […] Olfactory avoidance to DEET is active over a short range (˜1 cm) and mosquitoes are not repelled beyond the immediate vicinity. Therefore, a modified arm-in-cage assay was developed where a low concentration of 4-MP can be applied to filter paper pieces adjoining the netted landing window of the glove (FIG. 2a). […]

[5] = system: Drosophila melanogaster; assay: Drosophila melanogaster 2-choice trap assay; assay type: in vivo; details: compounds at 5% concentration; 48 hours; negative P.I. indicates repellency
Method: In a second type of assay, a Drosophila melanogaster 2-choice trap assay as described previously^4,6 was used with minor modifications. Traps were made with two 1.5 ml microcentrifuge tubes (USA Scientific) and 200 microliter pipette tips (USA Scientific), each cap contained standard cornmeal medium. T-shape piece of filter paper (Whatman #1) was impregnated with 5 ul of acetone (control) or 5 microliters of 5% test odor, diluted in acetone. Traps were placed within a petri dish (100×15 mm, Fisher) containing 10 ml of 1% agarose to provide moisture. Ten wild-type Drosophila melanogaster flies 4-7 days old were used per trial, which lasted 48 hours by which time point nearly all flies in the assays had made a choice and were counted. Preference Index (P.I.)=(number of flies in treated trap−number in control trap)/(number of flies in treated+control traps).

[6] = system: mosquitoes; details: cited from earlier work

| Compound | P.I. (mean preference index) [1] | Average % Repellency [2] | P.I. (mean preference index) [3] | further results |
| --- | --- | --- | --- | --- |
| CC1CC=CCC1 (centres unmarked) [4-methyl cyclohexene] | −0.8265 | 90.39% | – | – |
| CC1=CCC=CC1 [1-methyl-1,4-cyclohexadiene] | −0.1584 | 27.01% | −0.76 | – |
| CCCCC1CO1 (centres unmarked) [1,2-Epoxyhexane] | – | – | −0.2 | – |
| CC1CCNCC1 [4-methyl piperidine] | – | – | – | Repellency from skin-exposed net window [4]: effectively repel mosquitoes |
| CCC1=C(O)C(=O)CC1 [Ethyl cyclopentenolone] | −0.7423 | 77.44% | – | – |
| CC1=C(O)C(=O)C(C)O1 (centres unmarked) [4-Hydroxy-2,5-Dimethyl-3(2H)-Furanone] | – | – | – | P.I. (mean preference index) [5]: −0.24 |
| c1ccc2c(c1)CCCN2 [1,2,3,4-Tetrahydroquinoline] | −0.9965 | 99.82% | – | P.I. (mean preference index) [5]: −0.74 |
| C1=COCCC1 [Dihydropyran] | −0.2819 | – | – | – |
| CC1CCCO1 (centres unmarked) [2-methyl tetrahydrofuran] | −0.1815 | 29.78% | – | – |
| CC(C)CC1OCC(C)O1 (centres unmarked) [2-Isobutyl-4-methyl-1,3-dioxolane] | −0.2189 | 35.92% | −0.3 | – |
| Isopropyl Quinoline | – | 96.36% | −0.17 | – |
| COC(=O)Cc1ccc(C(C)(C)C)cc1 [methyl 2-(4-tert-butylphenyl)acetate] | – | – | – | P.I. (mean preference index) [5]: −0.14 |
| CCN1CCCC1=O [1-Ethyl-2-pyrrolidone] | – | – | – | P.I. (mean preference index) [5]: −0.12 |
| CC1COC(C)(C)O1 (centres unmarked) [Propylene glycol acetone ketal] | – | – | −0.09 | – |
| C1=COCCC1 [3.4-Dihydro-2H-pyran, 3,4-Dihydro-2H-pyran] | – | – | −0.88 | – |
| CCN(CC)C(=O)c1cccc(C)c1 [DEET, N,N-Diethyl-m-toluamide] | – | – | – | Range over which olfactory avoidance is active [6]: ~1 cm |
